Measured values as given in patent US7781459B2, “Carboxyalkoxy-substituted acyl-carboxyphenylurea derivatives and their use as medicaments” (Sanofi-Aventis Deutschland GmbH, priority 2002, dated 2010).
Like-named read-outs stand apart in the source and are kept apart here.

Tested on: glycogenolysis in primary cultures of rat hepatocytes
Assay: Inhibitory potency on glycogenolysis in primary cultures of rat hepatocytes (glucagon-induced glucose production rate)
Format: cell-based
Conditions: Hepatocyte
Method: Analysis of Test Substances for their Inhibitory Potency on Glycogenolysis in Primary Cultures of Rat Hepatocytes
Hepatocytes were isolated from the livers of fed rats (Sprague-Dawley or Wistar, bodyweight 220-240 g) by means of a standard 2-stage perfusion first with calcium-free buffer solution followed by perfusion with collagenase-containing solution to break up the tissue assembly (Seglen et al, 1979). The cells were incubated in an incubator with 90% humidity at 37° C. and an atmosphere with 5% CO2 in air. The cultivation normally took place with Williams' medium E supplemented with 20 mM glucose, 0.1 mM fructose, 1 μM dexamethasone and 100 nM insulin. Glycogenolysis was induced by changing the culture medium to prewarmed carbogen-gassed Krebs-Henseleit bicarbonate Hepes (20 mM) buffer, pH 7.4, supplemented with 100 nM glucagon (time 0 min). The test substances were normally added at time 0 min as 100× stock solution in DMSO. The final DMSO concentration was not higher than 1% (v/v). The amount of glucose in the culture supernatant was determined after addition of glucagon in the presence and absence of test substance by removing small aliquots of the cell culture supernatant at times 0, 30, 60 and 90 min. The glucose concentration (mM) was determined by enzymatic methods in a biochemical analysis laboratory of Aventis Pharma Deutschland. The glucose production rate was found by linear regression of the glucose concentration at times 30, 60 and 90 min using the following formula:
Glucose production rate (mM/h)=mM glucose (90 min)−mM glucose (30 min).
The percent inhibition was calculated using the following formula: […]
IC50 values (IC50: the concentration (μM) of test substance which brings about a reduction of 50% in the glucose production rate) was estimated by standard curve fitting methods using the percent inhibitions obtained at relevant concentrations of test substance.

[1] = comparison examples from WO 01/94300, glucagon-induced glycogenolysis, read-out: IC50 nm hep.
[2] = glycogenolysis induced with 100 nM glucagon, 50% reduction in glucose production rate, read-out: IC50 on hep.

SMILES: CC(=O)CCCCCOc1c(Cl)cc(NC(=O)NC(=O)c2ccc(F)cc2Cl)cc1Cl [Example No. 105 from WO 01/94300, reference compound]
- IC50 [1]: 17500 nM

SMILES: CC(=O)CCCCCOc1ccc(NC(=O)NC(=O)c2ccc(Cl)cc2Cl)c(F)c1 [Example No. 116 from WO 01/94300, reference compound]
- IC50 [1]: 13500 nM

SMILES: O=C(O)COc1ccccc1NC(=O)NC(=O)c1ccc(F)cc1Cl [Example 1, 2-[3-(2-Chloro-4-fluorobenzoyl)ureido]phenoxyacetic acid]
- IC50 [2]: 1160 nM

SMILES: COC(=O)CCCOc1cc(C(=O)O)ccc1NC(=O)NC(=O)c1cc(F)c(F)cc1Cl [Example 10, 4-[3-(2-Chloro-4,5-difluorobenzoyl)ureido]-3-(3-methoxycarbonylpropoxy)benzoic acid]
- IC50 [2]: 106 nM

SMILES: O=C(O)COc1cc(C(=O)O)ccc1NC(=O)NC(=O)c1ccc(F)cc1Cl [Example 2, 3-Carboxymethoxy-4-[3-(2-chloro-4-fluorobenzoyl)ureido]benzoic acid]
- IC50 [2]: 1460 nM
